Experimental data published in patent US20110038897A1, “ORAL CONTROLLED RELEASE FORMULATIONS” (priority 1999, published 2011).

Test: Biopharmaceutical properties of rivastigmine in humans
Format: in vivo

SMILES: CCN(C)C(=O)Oc1cccc([C@H](C)N(C)C)c1 [Rivastigmine]
- absorption: rapidly and completely absorbed
- metabolism (esterases, e.g., acetyl and butyryl cholinesterase): metabolised mainly through hydrolysis by esterases
